# ChEMBL document CHEMBL4627246, “Pyroglutamide-Based P2X7 Receptor Antagonists Targeting Inflammatory Bowel Disease” (J Med Chem, 2020)
# Test system: A549
# Test: Cytotoxicity against human A549/ATCC cells assessed as effect on cell growth at 10 uM incubated for 48 hrs by sulforhodamine B assay
# Format: cell-based
# Settings: a549, 48 h
row,SMILES,Activity
1,CCCCCCN1C(=O)[C@@H]2C/C(=C\N(C)C)C(=O)N2C1N(C)C (stereo not given in full),Non-Toxic
2,O=C(NCc1ccc(Cl)cc1Cl)[C@@H]1CCC(=O)N1c1ccccc1,Non-Toxic

# Test system: SR
# Test: Cytotoxicity against human SR cells assessed as effect on cell growth at 10 uM incubated for 48 hrs by sulforhodamine B assay
# Format: cell-based
# Settings: not given
row,SMILES,Activity
1,CCCCCCN1C(=O)[C@@H]2C/C(=C\N(C)C)C(=O)N2C1N(C)C (stereo not given in full),Non-Toxic
2,O=C(NCc1ccc(Cl)cc1Cl)[C@@H]1CCC(=O)N1c1ccccc1,Non-Toxic

# Test system: RPMI-8226
# Test: Cytotoxicity against human RPMI8226 cells assessed as effect on cell growth at 10 uM incubated for 48 hrs by sulforhodamine B assay
# Format: cell-based
# Settings: rpmi-8226, 48 h
row,SMILES,Activity
1,CCCCCCN1C(=O)[C@@H]2C/C(=C\N(C)C)C(=O)N2C1N(C)C (stereo not given in full),Non-Toxic
2,O=C(NCc1ccc(Cl)cc1Cl)[C@@H]1CCC(=O)N1c1ccccc1,Non-Toxic

# Test system: MOLT-4
# Test: Cytotoxicity against human MOLT4 cells assessed as effect on cell growth at 10 uM incubated for 48 hrs by sulforhodamine B assay
# Format: cell-based
# Settings: molt-4, 48 h
row,SMILES,Activity
1,CCCCCCN1C(=O)[C@@H]2C/C(=C\N(C)C)C(=O)N2C1N(C)C (stereo not given in full),Non-Toxic
2,O=C(NCc1ccc(Cl)cc1Cl)[C@@H]1CCC(=O)N1c1ccccc1,Non-Toxic

# Test system: EKVX
# Test: Cytotoxicity against human EKVX cells assessed as effect on cell growth at 10 uM incubated for 48 hrs by sulforhodamine B assay
# Format: cell-based
# Settings: not given
row,SMILES,Activity
1,CCCCCCN1C(=O)[C@@H]2C/C(=C\N(C)C)C(=O)N2C1N(C)C (stereo not given in full),Non-Toxic
2,O=C(NCc1ccc(Cl)cc1Cl)[C@@H]1CCC(=O)N1c1ccccc1,Non-Toxic

# Test system: HL-60(TB)
# Test: Cytotoxicity against human HL-60(TB) cells assessed as effect on cell growth at 10 uM incubated for 48 hrs by sulforhodamine B assay
# Format: cell-based
# Settings: not given
row,SMILES,Activity
1,CCCCCCN1C(=O)[C@@H]2C/C(=C\N(C)C)C(=O)N2C1N(C)C (stereo not given in full),Non-Toxic
2,O=C(NCc1ccc(Cl)cc1Cl)[C@@H]1CCC(=O)N1c1ccccc1,Non-Toxic

# Test system: NCI-H460
# Test: Cytotoxicity against human NCI-H460 cells assessed as effect on cell growth at 10 uM incubated for 48 hrs by sulforhodamine B assay
# Format: cell-based
# Settings: nci-h460, 48 h
row,SMILES,Activity
1,CCCCCCN1C(=O)[C@@H]2C/C(=C\N(C)C)C(=O)N2C1N(C)C (stereo not given in full),Non-Toxic
2,O=C(NCc1ccc(Cl)cc1Cl)[C@@H]1CCC(=O)N1c1ccccc1,Non-Toxic

# Test system: HCT-15
# Test: Cytotoxicity against human HCT15 cells assessed as effect on cell growth at 10 uM incubated for 48 hrs by sulforhodamine B assay
# Format: cell-based
# Settings: hct-15, 48 h
row,SMILES,Activity
1,CCCCCCN1C(=O)[C@@H]2C/C(=C\N(C)C)C(=O)N2C1N(C)C (stereo not given in full),Non-Toxic
2,O=C(NCc1ccc(Cl)cc1Cl)[C@@H]1CCC(=O)N1c1ccccc1,Non-Toxic

# Test system: KM12
# Test: Cytotoxicity against human KM12 cells assessed as effect on cell growth at 10 uM incubated for 48 hrs by sulforhodamine B assay
# Format: cell-based
# Settings: km12, 48 h
row,SMILES,Activity
1,CCCCCCN1C(=O)[C@@H]2C/C(=C\N(C)C)C(=O)N2C1N(C)C (stereo not given in full),Non-Toxic
2,O=C(NCc1ccc(Cl)cc1Cl)[C@@H]1CCC(=O)N1c1ccccc1,Non-Toxic

# Test system: SW-620
# Test: Cytotoxicity against human SW620 cells assessed as effect on cell growth at 10 uM incubated for 48 hrs by sulforhodamine B assay
# Format: cell-based
# Settings: sw-620, 48 h
row,SMILES,Activity
1,CCCCCCN1C(=O)[C@@H]2C/C(=C\N(C)C)C(=O)N2C1N(C)C (stereo not given in full),Non-Toxic
2,O=C(NCc1ccc(Cl)cc1Cl)[C@@H]1CCC(=O)N1c1ccccc1,Non-Toxic

# Test system: SF-295
# Test: Cytotoxicity against human SF295 cells assessed as effect on cell growth at 10 uM incubated for 48 hrs by sulforhodamine B assay
# Format: cell-based
# Settings: sf-295, 48 h
row,SMILES,Activity
1,CCCCCCN1C(=O)[C@@H]2C/C(=C\N(C)C)C(=O)N2C1N(C)C (stereo not given in full),Non-Toxic
2,O=C(NCc1ccc(Cl)cc1Cl)[C@@H]1CCC(=O)N1c1ccccc1,Non-Toxic

# Test system: SF-539
# Test: Cytotoxicity against human SF539 cells assessed as effect on cell growth at 10 uM incubated for 48 hrs by sulforhodamine B assay
# Format: cell-based
# Settings: sf-539, 48 h
row,SMILES,Activity
1,CCCCCCN1C(=O)[C@@H]2C/C(=C\N(C)C)C(=O)N2C1N(C)C (stereo not given in full),Non-Toxic
2,O=C(NCc1ccc(Cl)cc1Cl)[C@@H]1CCC(=O)N1c1ccccc1,Non-Toxic

# Test system: M14
# Test: Cytotoxicity against human M14 cells assessed as effect on cell growth at 10 uM incubated for 48 hrs by sulforhodamine B assay
# Format: cell-based
# Settings: m14, 48 h
row,SMILES,Activity
1,CCCCCCN1C(=O)[C@@H]2C/C(=C\N(C)C)C(=O)N2C1N(C)C (stereo not given in full),Non-Toxic
2,O=C(NCc1ccc(Cl)cc1Cl)[C@@H]1CCC(=O)N1c1ccccc1,Non-Toxic

# Test system: OVCAR-5
# Test: Cytotoxicity against human OVCAR5 cells assessed as effect on cell growth at 10 uM incubated for 48 hrs by sulforhodamine B assay
# Format: cell-based
# Settings: ovcar-5, 48 h
row,SMILES,Activity
1,CCCCCCN1C(=O)[C@@H]2C/C(=C\N(C)C)C(=O)N2C1N(C)C (stereo not given in full),Non-Toxic
2,O=C(NCc1ccc(Cl)cc1Cl)[C@@H]1CCC(=O)N1c1ccccc1,Non-Toxic

# Test system: SK-OV-3
# Test: Cytotoxicity against human SKOV3 cells assessed as effect on cell growth at 10 uM incubated for 48 hrs by sulforhodamine B assay
# Format: cell-based
# Settings: sk-ov-3, 48 h
row,SMILES,Activity
1,CCCCCCN1C(=O)[C@@H]2C/C(=C\N(C)C)C(=O)N2C1N(C)C (stereo not given in full),Non-Toxic
2,O=C(NCc1ccc(Cl)cc1Cl)[C@@H]1CCC(=O)N1c1ccccc1,Non-Toxic

# Test system: 786-0
# Test: Cytotoxicity against human 786-0 cells assessed as effect on cell growth at 10 uM incubated for 48 hrs by sulforhodamine B assay
# Format: cell-based
# Settings: 786-0, 48 h
row,SMILES,Activity
1,CCCCCCN1C(=O)[C@@H]2C/C(=C\N(C)C)C(=O)N2C1N(C)C (stereo not given in full),Non-Toxic
2,O=C(NCc1ccc(Cl)cc1Cl)[C@@H]1CCC(=O)N1c1ccccc1,Non-Toxic

# Test system: A498
# Test: Cytotoxicity against human A498 cells assessed as effect on cell growth at 10 uM incubated for 48 hrs by sulforhodamine B assay
# Format: cell-based
# Settings: a498, 48 h
row,SMILES,Activity
1,CCCCCCN1C(=O)[C@@H]2C/C(=C\N(C)C)C(=O)N2C1N(C)C (stereo not given in full),Non-Toxic
2,O=C(NCc1ccc(Cl)cc1Cl)[C@@H]1CCC(=O)N1c1ccccc1,Non-Toxic

# Test system: ACHN
# Test: Cytotoxicity against human ACHN cells assessed as effect on cell growth at 10 uM incubated for 48 hrs by sulforhodamine B assay
# Format: cell-based
# Settings: not given
row,SMILES,Activity
1,CCCCCCN1C(=O)[C@@H]2C/C(=C\N(C)C)C(=O)N2C1N(C)C (stereo not given in full),Non-Toxic
2,O=C(NCc1ccc(Cl)cc1Cl)[C@@H]1CCC(=O)N1c1ccccc1,Non-Toxic

# Test system: UO-31
# Test: Cytotoxicity against human UO31 cells assessed as effect on cell growth at 10 uM incubated for 48 hrs by sulforhodamine B assay
# Format: cell-based
# Settings: uo-31, 48 h
row,SMILES,Activity
1,CCCCCCN1C(=O)[C@@H]2C/C(=C\N(C)C)C(=O)N2C1N(C)C (stereo not given in full),Non-Toxic
2,O=C(NCc1ccc(Cl)cc1Cl)[C@@H]1CCC(=O)N1c1ccccc1,Non-Toxic

# Test system: DU-145
# Test: Cytotoxicity against human DU145 cells assessed as effect on cell growth at 10 uM incubated for 48 hrs by sulforhodamine B assay
# Format: cell-based
# Settings: du-145, 48 h
row,SMILES,Activity
1,CCCCCCN1C(=O)[C@@H]2C/C(=C\N(C)C)C(=O)N2C1N(C)C (stereo not given in full),Non-Toxic
2,O=C(NCc1ccc(Cl)cc1Cl)[C@@H]1CCC(=O)N1c1ccccc1,Non-Toxic
